Results: ChEMBL document CHEMBL1143403, “Location of persisting mycobacteria in a Guinea pig model of tuberculosis revealed by r207910” (2007)

What was measured:
[1] = system: Mycobacterium tuberculosis; format: functional, Spleen; settings: dose 5 mg/kg; route oral
[2] = system: Mycobacterium tuberculosis; format: functional, Spleen; settings: dose 15 mg/kg; route oral
[3] = system: Mycobacterium tuberculosis; format: functional; settings: dose 10 mg/kg; route oral
[4] = system: Mycobacterium tuberculosis; format: functional; settings: dose 15 mg/kg; route oral
[5] = system: Mycobacterium tuberculosis; format: functional, Spleen; settings: dose 10 mg/kg; route oral
[6] = system: Mycobacterium tuberculosis; format: functional; settings: dose 5 mg/kg; route oral

## COc1nc2ccc(Br)cc2cc1[C@@H](c1ccccc1)[C@](O)(CCN(C)C)c1cccc(F)c1
[1]
  log10cfu: 0.54
[2]
  log10cfu: 0.98
[3]
  CFU: 251
  log10cfu: 1.29
[4]
  CFU: 46
  log10cfu: 0.93
[5]
  log10cfu: 0.46
[6]
  CFU: 358
  log10cfu: 2.27
